Test results reported in US10246451B2, “Propionic acid derivatives and methods of use thereof” (Aviara Pharmaceuticals, Inc., priority 2017, dated 2019).

Biological target: α4β1 integrin (Homo sapiens, UniProt P05556+P13612)
Test: a4b1 IC50 (inhibition of α4β1 integrin; no method described)
Type: binding

Chain of α4β1 integrin (P13612 34-1032): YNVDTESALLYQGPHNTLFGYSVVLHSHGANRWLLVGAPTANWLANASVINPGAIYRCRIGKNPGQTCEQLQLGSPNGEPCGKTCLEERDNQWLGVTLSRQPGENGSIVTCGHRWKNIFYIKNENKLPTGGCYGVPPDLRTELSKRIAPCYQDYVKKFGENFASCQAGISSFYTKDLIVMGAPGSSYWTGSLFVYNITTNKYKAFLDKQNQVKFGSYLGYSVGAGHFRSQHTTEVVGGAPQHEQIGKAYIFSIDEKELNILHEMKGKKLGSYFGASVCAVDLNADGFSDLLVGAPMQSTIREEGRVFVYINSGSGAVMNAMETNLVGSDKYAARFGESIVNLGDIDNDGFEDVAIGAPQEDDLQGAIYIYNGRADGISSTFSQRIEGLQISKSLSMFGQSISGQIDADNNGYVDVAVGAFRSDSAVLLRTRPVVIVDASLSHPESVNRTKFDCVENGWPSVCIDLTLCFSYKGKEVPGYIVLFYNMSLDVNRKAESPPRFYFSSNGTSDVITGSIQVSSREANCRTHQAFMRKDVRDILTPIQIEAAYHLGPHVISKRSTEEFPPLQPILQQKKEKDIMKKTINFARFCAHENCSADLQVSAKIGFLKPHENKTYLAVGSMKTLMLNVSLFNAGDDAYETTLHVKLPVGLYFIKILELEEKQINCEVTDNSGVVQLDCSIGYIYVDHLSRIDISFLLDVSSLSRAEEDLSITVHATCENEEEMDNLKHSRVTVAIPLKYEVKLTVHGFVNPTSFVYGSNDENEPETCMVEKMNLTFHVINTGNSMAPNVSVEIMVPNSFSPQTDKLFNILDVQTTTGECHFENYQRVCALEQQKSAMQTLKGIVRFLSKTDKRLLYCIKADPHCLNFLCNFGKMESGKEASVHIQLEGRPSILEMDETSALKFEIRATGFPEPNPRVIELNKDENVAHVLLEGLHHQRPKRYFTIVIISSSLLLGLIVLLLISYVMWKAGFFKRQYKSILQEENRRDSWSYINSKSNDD
Chain of α4β1 integrin (P05556 21-798): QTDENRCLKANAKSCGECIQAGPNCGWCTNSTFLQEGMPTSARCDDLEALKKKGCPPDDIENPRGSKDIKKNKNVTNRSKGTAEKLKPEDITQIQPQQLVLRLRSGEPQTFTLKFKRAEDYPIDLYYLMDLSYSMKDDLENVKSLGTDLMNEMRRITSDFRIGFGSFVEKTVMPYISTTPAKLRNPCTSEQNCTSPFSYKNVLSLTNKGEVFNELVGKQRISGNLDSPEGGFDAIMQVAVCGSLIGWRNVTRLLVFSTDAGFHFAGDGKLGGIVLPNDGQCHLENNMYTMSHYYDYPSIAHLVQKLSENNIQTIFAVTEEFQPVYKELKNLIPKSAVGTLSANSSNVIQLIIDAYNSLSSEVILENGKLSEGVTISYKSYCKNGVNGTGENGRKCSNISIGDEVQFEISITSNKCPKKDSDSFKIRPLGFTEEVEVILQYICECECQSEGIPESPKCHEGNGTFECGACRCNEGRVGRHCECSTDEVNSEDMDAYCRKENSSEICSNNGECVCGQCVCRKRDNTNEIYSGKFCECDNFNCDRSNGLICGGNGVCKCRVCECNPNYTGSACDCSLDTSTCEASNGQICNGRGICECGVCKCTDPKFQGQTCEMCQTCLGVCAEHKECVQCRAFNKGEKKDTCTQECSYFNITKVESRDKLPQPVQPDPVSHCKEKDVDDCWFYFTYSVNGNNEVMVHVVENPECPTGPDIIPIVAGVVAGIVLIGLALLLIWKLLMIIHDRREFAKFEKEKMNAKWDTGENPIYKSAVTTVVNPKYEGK

IC50 [µM]	SMILES
< 0.2	Cc1cn(C)c(=O)c(NC(=O)NC(CC(=O)O)c2cccc(Oc3ccccc3)c2)c1O (stereo not drawn) [Compound 1-21, sodium 3-(3-(1,5-dimethyl-4-oxido-2-oxo-1,2-dihydropyridin-3-yl)ureido)-3-(3-phenoxyphenyl)propanoate]
< 0.2	Cc1cn(C)c(=O)c(NC(=O)N[C@@H](CC(=O)O)c2cccc(Oc3ccccc3)c2)c1O [Compound 1-22, sodium (S)-3-(3-(1,5-dimethyl-4-oxido-2-oxo-1,2-dihydropyridin-3-yl)ureido)-3-(3-phenoxyphenyl)propanoate]
< 0.2	Cc1cn(C)c(=O)c(NC(=O)N[C@@H](CC(=O)O)c2cccc(Cc3ccccc3)c2)c1O [Compound 1-23, sodium (S)-3-(3-benzylphenyl)-3-(3-(1,5-dimethyl-4-oxido-2-oxo-1,2-dihydropyridin-3-yl)ureido)propanoate]
< 0.2	Cc1cn(C)c(=O)c(NC(=O)NC(CC(=O)O)c2cccc(Cc3ccccc3Cl)c2)c1O (stereo not drawn) [Compound 1-24, sodium 3-(3-(2-chlorobenzyl)phenyl)-3-(3-(1,5-dimethyl-4-oxido-2-oxo-1,2-dihydropyridin-3-yl)ureido)propanoate]
< 0.2	Cc1cn(C)c(=O)c(NC(=O)NC(CC(=O)O)c2cccc(Cc3cccc(Cl)c3)c2)c1O (stereo not drawn) [Compound 1-25, sodium 3-(3-(3-chlorobenzyl)phenyl)-3-(3-(1,5-dimethyl-4-oxido-2-oxo-1,2-dihydropyridin-3-yl)ureido)propanoate]
> 0.2	Cc1cn(C)c(=O)c(NC(=O)NC(CC(=O)O)c2cccc(Cc3ccc(Cl)cc3)c2)c1O (stereo not drawn) [Compound 1-26, sodium 3-(3-(4-chlorobenzyl)phenyl)-3-(3-(1,5-dimethyl-4-oxido-2-oxo-1,2-dihydropyridin-3-yl)ureido)propanoate]
> 0.2	Cc1cn(C)c(=O)c(NC(=O)N[C@@H](CC(=O)O)c2ccc(Cc3ccccc3Cl)cc2)c1O [Compound 1-27, sodium (S)-3-(4-(2-chlorobenzyl)phenyl)-3-(3-(4-hydroxy-1,5-dimethyl-2-oxo-1,2-dihydropyridin-3-yl)ureido)propanoate]
< 0.02	Cc1ccccc1Cc1cccc([C@H](CC(=O)O)NC(=O)Nc2c(O)c(C)cn(C)c2=O)c1 [Compound 1-28, sodium (S)-3-(3-(1,5-dimethyl-4-oxido-2-oxo-1,2-dihydropyridin-3-yl)ureido)-3-(3-(2-methylbenzyl)phenyl)propanoate]
< 0.2	Cc1cccc(Cc2cccc([C@H](CC(=O)O)NC(=O)Nc3c(O)c(C)cn(C)c3=O)c2)c1 [Compound 1-29, sodium (S)-3-(3-(1,5-dimethyl-4-oxido-2-oxo-1,2-dihydropyridin-3-yl)ureido)-3-(3-(3-methylbenzyl)phenyl)propanoate]
< 0.2	Cc1ccc(Cc2cccc([C@H](CC(=O)O)NC(=O)Nc3c(O)c(C)cn(C)c3=O)c2)cc1 [Compound 1-30, sodium (S)-3-(3-(1,5-dimethyl-4-oxido-2-oxo-1,2-dihydropyridin-3-yl)ureido)-3-(3-(4-methylbenzyl)phenyl)propanoate]
< 0.2	COc1ccccc1Oc1ccc([C@H](CC(=O)O)NC(=O)Nc2c(O)cc(C)n(C)c2=O)cc1 [Compound 2-11, sodium (S)-3-(3-(1,6-dimethyl-4-oxido-2-oxo-1,2-dihydropyridin-3-yl)ureido)-3-(4-(2-methoxyphenoxy)phenyl)propanoate]
< 0.2	COc1cccc(Oc2ccc([C@H](CC(=O)O)NC(=O)Nc3c(O)cc(C)n(C)c3=O)cc2)c1 [Compound 2-12, sodium (S)-3-(3-(1,6-dimethyl-4-oxido-2-oxo-1,2-dihydropyridin-3-yl)ureido)-3-(4-(3-methoxyphenoxy)phenyl)propanoate]
< 0.02	Cc1ccccc1Cc1cccc([C@H](CC(=O)O)NC(=O)Nc2c(O)cc(C)n(C)c2=O)c1 [Compound 2-14, sodium (S)-3-(3-(1,6-dimethyl-4-oxido-2-oxo-1,2-dihydropyridin-3-yl)ureido)-3-(3-(2-methylbenzyl)phenyl)propanoate]
≤ 0.02	Cc1ccccc1Cc1ccc([C@H](CC(=O)O)NC(=O)Nc2c(O)cc(C)n(C)c2=O)s1 [Compound 2-15, sodium (S)-3-(3-(1,6-dimethyl-4-oxido-2-oxo-1,2-dihydropyridin-3-yl)ureido)-3-(5-(2-methylbenzyl)thiophen-2-yl)propanoate]
> 0.2	Cc1ccccc1C(F)(F)c1cccc([C@@H](CC(=O)O)NC(=O)Nc2c(O)ccn(C)c2=O)c1 [Compound 3-66, sodium (R)-3-(3-(difluoro(o-tolyl)methyl)phenyl)-3-(3-(1-methyl-4-oxido-2-oxo-1,2-dihydropyridin-3-yl)ureido)propanoate]
< 0.02	Cc1ccccc1Oc1cccc([C@H](CC(=O)O)NC(=O)Nc2c(O)ccn(C)c2=O)c1 [Compound 3-67, sodium (S)-3-(3-(1-methyl-4-oxido-2-oxo-1,2-dihydropyridin-3-yl)ureido)-3-(3-(o-tolyloxy)phenyl)propanoate]
< 0.02	COc1ccccc1Oc1cccc([C@H](CC(=O)O)NC(=O)Nc2c(O)ccn(C)c2=O)c1 [Compound 3-68, sodium (S)-3-(3-(2-methoxyphenoxy)phenyl)-3-(3-(1-methyl-4-oxido-2-oxo-1,2-dihydropyridin-3-yl)ureido)propanoate]

IC50 [µM]	SMILES
< 0.02	Cn1ccc(O)c(NC(=O)N[C@@H](CC(=O)O)c2cccc(Oc3ccccc3Cl)c2)c1=O [Compound 3-69, sodium (S)-3-(3-(2-chlorophenoxy)phenyl)-3-(3-(1-methyl-4-oxido-2-oxo-1,2-dihydropyridin-3-yl)ureido)propanoate]
< 0.02	Cc1ccc(F)cc1Cc1cccc([C@H](CC(=O)O)NC(=O)Nc2c(O)ccn(C)c2=O)c1 [Compound 3-70, sodium (S)-3-(3-(5-fluoro-2-methylbenzyl)phenyl)-3-(3-(1-methyl-4-oxido-2-oxo-1,2-dihydropyridin-3-yl)ureido)propanoate]
< 0.2	COc1ccccc1Oc1ccc([C@H](CC(=O)O)NC(=O)Nc2c(O)ccn(C)c2=O)cc1 [Compound 3-72, sodium (S)-3-(4-(2-methoxyphenoxy)phenyl)-3-(3-(1-methyl-4-oxido-2-oxo-1,2-dihydropyridin-3-yl)ureido)propanoate]
< 0.2	COc1cccc(Oc2ccc([C@H](CC(=O)O)NC(=O)Nc3c(O)ccn(C)c3=O)cc2)c1 [Compound 3-73, sodium (S)-3-(4-(3-methoxyphenoxy)phenyl)-3-(3-(1-methyl-4-oxido-2-oxo-1,2-dihydropyridin-3-yl)ureido)propanoate]
< 0.02	Cc1ccccc1Oc1ccc([C@H](CC(=O)O)NC(=O)Nc2c(O)ccn(C)c2=O)cc1 [Compound 3-74, sodium (S)-3-(3-(1-methyl-4-oxido-2-oxo-1,2-dihydropyridin-3-yl)ureido)-3-(4-(o-tolyloxy)phenyl)propanoate]
< 0.2	Cc1ccc(Oc2ccc([C@H](CC(=O)O)NC(=O)Nc3c(O)ccn(C)c3=O)cc2)cc1 [Compound 3-75, sodium (S)-3-(3-(1-methyl-4-oxido-2-oxo-1,2-dihydropyridin-3-yl)ureido)-3-(4-(p-tolyloxy)phenyl)propanoate]
< 0.02	Cn1ccc(O)c(NC(=O)N[C@@H](CC(=O)O)c2ccc(Cc3ccccc3)cc2)c1=O [Compound 3-76, sodium (S)-3-(4-benzylphenyl)-3-(3-(1-methyl-4-oxido-2-oxo-1,2-dihydropyridin-3-yl)ureido)propanoate]
< 0.2	Cc1ccccc1Cc1ccc([C@H](CC(=O)O)NC(=O)Nc2c(O)ccn(C)c2=O)cc1 [Compound 3-77, sodium (S)-3-(3-(1-methyl-4-oxido-2-oxo-1,2-dihydropyridin-3-yl)ureido)-3-(4-(2-methylbenzyl)phenyl)propanoate]
> 0.2	Cc1cccc(Cc2ccc([C@H](CC(=O)O)NC(=O)Nc3c(O)ccn(C)c3=O)cc2)c1 [Compound 3-78, sodium (S)-3-(3-(1-methyl-4-oxido-2-oxo-1,2-dihydropyridin-3-yl)ureido)-3-(4-(3-methylbenzyl)phenyl)propanoate]
> 0.2	Cc1ccc(Cc2ccc([C@H](CC(=O)O)NC(=O)Nc3c(O)ccn(C)c3=O)cc2)cc1 [Compound 3-79, sodium (S)-3-(3-(1-methyl-4-oxido-2-oxo-1,2-dihydropyridin-3-yl)ureido)-3-(4-(4-methylbenzyl)phenyl)propanoate]
< 0.02	CCc1ccccc1Cc1cccc([C@H](CC(=O)O)NC(=O)Nc2c(O)ccn(C)c2=O)c1 [Compound 3-80, sodium (S)-3-(3-(2-ethylbenzyl)phenyl)-3-(3-(1-methyl-4-oxido-2-oxo-1,2-dihydro-pyridin-3-yl)ureido)propanoate]
< 0.02	Cc1ccccc1Cc1cccc([C@H](CC(=O)O)NC(=O)Nc2c(O)ccn(C)c2=O)c1 [Compound 3-81, sodium (S)-3-(3-(1-methyl-4-oxido-2-oxo-1,2-dihydropyridin-3-yl)ureido)-3-(3-(2-methylbenzyl)phenyl)propanoate]
< 0.02	Cc1ccc(Cc2cccc([C@H](CC(=O)O)NC(=O)Nc3c(O)ccn(C)c3=O)c2)cc1 [Compound 3-82, sodium (S)-3-(3-(1-methyl-4-oxido-2-oxo-1,2-dihydropyridin-3-yl)ureido)-3-(3-(4-methylbenzyl)phenyl)propanoate]
< 0.2	Cc1cccc(Cc2cccc([C@H](CC(=O)O)NC(=O)Nc3c(O)ccn(C)c3=O)c2)c1 [Compound 3-83, sodium (S)-3-(3-(1-methyl-4-oxido-2-oxo-1,2-dihydropyridin-3-yl)ureido)-3-(3-(3-methylbenzyl)phenyl)propanoate]
< 0.02	Cc1cccc(Oc2cccc([C@H](CC(=O)O)NC(=O)Nc3c(O)ccn(C)c3=O)c2)c1 [Compound 3-84, sodium (S)-3-(3-(1-methyl-4-oxido-2-oxo-1,2-dihydropyridin-3-yl)ureido)-3-(3-(m-tolyloxy)phenyl)propanoate]
< 0.02	Cc1ccc(Oc2cccc([C@H](CC(=O)O)NC(=O)Nc3c(O)ccn(C)c3=O)c2)cc1 [Compound 3-85, sodium (S)-3-(3-(1-methyl-4-oxido-2-oxo-1,2-dihydropyridin-3-yl)ureido)-3-(3-(p-tolyloxy)phenyl)propanoate]
